The values below come from patent US8415469B2, “Compounds and methods for kinase modulation, and indications therefor” (Plexxikon Inc., priority 2005, dated 2013).

Structures are written as SMILES.

The assay has as its target T1, B-Raf V600E (Homo sapiens, UniProt P15056, V600E).
T1 construct: P4254. pFastBacBD-CDC37 BRAF D437-K722-X, V600E; His6 with pFastBac HT leader (TEV site) (N); made in house; host or cells: Sf9 (baculovirus; chaperone CDC37 co-expressed)
Description: AlphaScreen kinase assay, B-Raf V600E. The assay is classed as biochemical. The settings on record: read-out: IC50, activity toward kinase B-Raf V600E. (In Alpha technology, singlet oxygen from a donor bead excites a nearby acceptor bead.)

T1 sequence (P15056 with tags, fused parts or gaps V600E): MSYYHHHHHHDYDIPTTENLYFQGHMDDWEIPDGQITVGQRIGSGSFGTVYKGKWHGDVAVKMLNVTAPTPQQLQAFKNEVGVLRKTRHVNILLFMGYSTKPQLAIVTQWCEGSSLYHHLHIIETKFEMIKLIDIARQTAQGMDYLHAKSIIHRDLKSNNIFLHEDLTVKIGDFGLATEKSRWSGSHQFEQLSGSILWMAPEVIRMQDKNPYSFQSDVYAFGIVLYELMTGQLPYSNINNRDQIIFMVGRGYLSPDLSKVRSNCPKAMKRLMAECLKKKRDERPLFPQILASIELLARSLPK

One may read the IC50 as the concentration that inhibits the measured activity by half. Take `Cc1cc(C)cc(-c2ccnc3[nH]cc(Sc4cccs4)c23)c1` [Compound P-0255]: the IC50 was at most 10 µM.
In the case of `Fc1cc(F)cc(-c2ccnc3[nH]cc(Sc4ccccc4)c23)c1` [Compound P-0311], the IC50 was at most 10 µM.
With `COc1ccccc1-c1c[nH]c2ncccc12` [Compound P-0358] the figure was at most 10 µM; with `c1ccc(Cc2nc(-c3ccnc4[nH]ccc34)no2)cc1` [Compound P-0381], at most 10 µM; with `CCC(C)Cc1c[nH]c2ncccc12` (centres unmarked) [Compound P-0386], at most 10 µM.
Turning to `OCc1cccc(-c2ccnc3[nH]cc(Sc4ccc(Cl)cc4)c23)c1` [Compound P-0388], the IC50 was at most 10 µM.
On to `COC(c1ccc(Br)cc1)c1c[nH]c2ncccc12` (centres unmarked) [Compound P-0552], for which the IC50 was at most 10 µM.
Turning to `O=C(c1cc([N+](=O)[O-])ccc1Cl)c1c[nH]c2ncccc12` [Compound P-0592], the IC50 is at most 10 µM.
Take `OCc1cccc(-c2ccnc3[nH]cc(Sc4cc(Cl)cc(Cl)c4)c23)c1` [Compound P-0600]: the IC50 is at most 10 µM.
With `COC(=O)c1cccc(C#Cc2c[nH]c3ncc(-c4ccc(OC)c(OC)c4)cc23)c1` [Compound P-0646] the figure was at most 10 µM; with `FC(F)(F)c1cccc(-c2ccnc3[nH]cc(Sc4cccs4)c23)c1` [Compound P-0651], at most 10 µM.
For `COc1ccc(Cc2nc(-c3ccnc4[nH]ccc34)no2)cc1` [Compound P-0696] the value was at most 10 µM; for `Cn1ccc2cc(-c3c[nH]c4ncccc34)ccc21` [Compound P-0713], at most 10 µM; for `O=C(Nc1ccc(Cc2c[nH]c3ncccc23)cc1)c1ccccc1` [Compound P-0803], at most 10 µM.
As for `O=[N+]([O-])c1cccc(Sc2c[nH]c3nccc(-c4cc(F)cc(F)c4)c23)c1` [Compound P-0816], the IC50 was at most 10 µM.
For the molecule `c1cnc2[nH]cc(-c3noc(CCC4CCCC4)n3)c2c1` [Compound P-0833], the IC50 was at most 10 µM.
`COc1ccc(-c2c[nH]c3ncccc23)cc1OCc1ccccc1` [Compound P-0886]: the IC50 is at most 10 µM.
For the molecule `Cc1cc(-c2nc(-c3ccnc4[nH]ccc34)no2)n(C(C)(C)C)n1` [Compound P-0893], the IC50 was at most 10 µM.
`Cc1nc2ccc(Nc3cnc4[nH]ccc4c3)cc2s1` [Compound P-1030]: the IC50 is at most 10 µM.
Turning to `Fc1cccc(Nc2cnc3[nH]ccc3c2)c1` [Compound P-1035], the IC50 is at most 10 µM.
As for `CC(C)Oc1cccc(Nc2cnc3[nH]ccc3c2)c1` [Compound P-1049], the IC50 was at most 10 µM.
As to `COc1ccc(S(=O)(=O)Nc2ccc(F)c(C(=O)c3c[nH]c4ncccc34)c2F)cc1OC` [Compound P-1090, N-[2,4-Difluoro-3-(1H-pyrrolo[2,3-b]pyridine-3-carbonyl)-phenyl]-3,4-dimethoxy-benzenesulfonamide], the concentration for half-maximal inhibition (IC50) was at most 10 µM.
Regarding `Fc1ccc(Nc2cnc3[nH]ccc3c2)cc1` [Compound P-1091], the IC50 was at most 10 µM.
`CCC(C)c1ccc(Nc2cnc3[nH]ccc3c2)cc1` (centres unmarked) [Compound P-1128]: the IC50 was at most 10 µM.
On to `COc1ccc(OC)c(S(=O)(=O)Nc2ccc(F)c(C(=O)c3c[nH]c4ncccc34)c2F)c1` [Compound P-1131, N-[2,4-Difluoro-3-(1H-pyrrolo[2,3-b]pyridine-3-carbonyl)-phenyl]-2,5-dimethoxy-benzenesulfonamide], for which the IC50 was at most 10 µM.
Regarding `CC(C)(C)OC(=O)Nc1ccc(Cl)c(C(O)c2c[nH]c3ncccc23)c1F` (centres unmarked) [Compound P-1140], the IC50 was at most 10 µM.
In the case of `Cn1nc(C(C)(C)C)cc1-c1nc(-c2c[nH]c3ncccc23)no1` [Compound P-1177], the IC50 was at most 10 µM.
With `FC(F)(F)c1ccc(-c2c[nH]c3ncccc23)cc1` [Compound P-1179], the IC50 is at most 10 µM.
For the molecule `Oc1ccc(F)c(C(O)c2c[nH]c3ncc(Br)cc23)c1F` (centres unmarked) [Compound P-1180, 3-[(5-Bromo-1H-pyrrolo[2,3-b]pyridin-3-yl)-hydroxy-methyl]-2,4-difluoro-phenol], the IC50 was at most 10 µM.
